{
  "source": "paper PMC5923142",
  "about": "“Selection and Characterization of Rupintrivir-Resistant Norwalk Virus Replicon Cells In Vitro” (Antimicrobial Agents and Chemotherapy, 2018)",
  "key": {"[1]": {"system": "Norwalk virus replicon", "experiment": "Replicon clearance from HGT-NV cells over 12 days without G418 (qRT-PCR)", "assay_type": "cell-based, Human norovirus (HuNoV) GI", "settings": "12 days posttreatment, no G418", "procedure": "To confirm the previously reported inhibitory effects of rupintrivir on human norovirus replication ([10]), we generated a human gastric adenocarcinoma cell line, HGT-NV, which stably maintained a Norwalk virus replicon encoding the neomycin resistance gene in place of the major capsid protein. The effects of rupintrivir on norovirus RNA replication in the replicon cells were evaluated by quantitative reverse transcription-PCR (qRT-PCR). […] To determine the concentration of rupintrivir sufficient to completely eliminate the norovirus replicon from HGT-NV cells, we treated the replicon cells with 2.5, 5, and 10 μM rupintrivir in the absence of G418 for up to 12 days. The replicon cells were passaged on days 3, 8, and 12, and the levels of replicon RNA were quantified by qRT-PCR. […] To further characterize the inhibitory effects of rupintrivir, we performed a colony formation assay with replicon cells treated with rupintrivir for 12 days. […]\nThe inhibitory effect of rupintrivir on HuNoV replication was assessed by quantification of the levels of GI NuNoV RNA and β-actin RNA as the reference gene. […] The real-time quantitative reverse transcription-PCR (qRT-PCR) assay was performed by using a One-Step Plus qRT-PCR kit according to the protocol of the manufacturer (Primer Design). […] Relative quantification was performed using the 2^−ΔΔCT threshold cycle (CT) method ([38]). […]"}, "[2]": {"system": "Norwalk virus replicon", "experiment": "Colony formation assay with HGT-NV cells after 12 days of treatment", "assay_type": "cell-based, Human norovirus (HuNoV) GI", "settings": "then 1 week G418 1.5 mg/ml without drug", "procedure": "HGT-NV cells treated with rupintrivir or DMSO for 12 days in the absence of G418 were plated into 6-well plates in complete DMEM and maintained without rupintrivir in the presence of G418 (1.5 mg/ml). After 1 week of incubation, the colonies on the plate were stained with 0.1% toluidine blue and photographed."}, "[3]": {"target": "T1, GI I109V mutant protease (Norovirus, UniProt Q83883, I1209V)", "T1 construct": "plasmids expressing norovirus protease from GI.1 (M87661); expressed in transfected cells; host or cells: HEK293T", "T1 sequence (Q83883 1101-1281 I1209V)": "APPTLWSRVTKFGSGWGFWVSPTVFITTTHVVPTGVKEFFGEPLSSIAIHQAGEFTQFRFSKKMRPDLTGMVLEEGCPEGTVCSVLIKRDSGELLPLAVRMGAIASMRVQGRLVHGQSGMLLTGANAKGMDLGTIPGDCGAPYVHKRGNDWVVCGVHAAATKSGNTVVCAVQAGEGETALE", "experiment": "Cell-based FRET assay, GI I109V protease", "design": "species or system norovirus GI.1 (M87661)", "text": "The generation of plasmids expressing norovirus protease from GI.1 (M87661), GII.4 (DQ658413), or GV (DQ285629) norovirus and FRET assay constructs has been described previously ([18]). The plasmids carrying GI, GII, and GV proteases with the A105V, I109V, or A105V/I109V mutation were generated from the wild-type (WT) protease constructs described above by the QuikChange site-directed mutagenesis method. Mutant MNV genomes for reverse genetics were generated by two-step PCR mutagenesis of the WT MNV genome (pT7 MNV 3RZ) construct as described previously ([27]). The primers used for generation of the plasmids are listed in Tables S1 and S2 in the supplemental material.\nThe YFP/CFP ratio was used to determine FRET efficiency, as described previously ([18], [40]). Briefly, HEK293T cells were plated into black 96-well cell culture microplates (Greiner Bio-One) at a density of 5 × 10^4 cells/well in 100 μl of DMEM containing 10% fetal bovine serum with or without various concentrations of rupintrivir and then incubated for 4 h in a CO2 incubator at 37°C. […] The plates were then analyzed on a SpectraMax i3 instrument in fluorescence mode, with excitation set at 434 nm and the reading emissions set at 477 nm (CFP) and 527 nm (YFP). The background fluorescence from wells transfected with pcDNA3.1 was determined and subtracted. […]"}, "[4]": {"system": "recombinant WT MNV", "experiment": "Antiviral effect against recombinant WT MNV infection of BV-2 cells (TCID50)", "assay_type": "cell-based, murine norovirus", "settings": "BV-2, 24 h", "procedure": "BV-2 cells were infected with recombinant WT MNV or the MNV I109V mutant at an MOI of 0.1 or 1 for 1 h in the CO2 incubator at 37°C. After incubation, the supernatant was removed and the cells were washed twice with PBS, and then complete DMEM containing various concentrations of rupintrivir or 2CMC was added to the cells. After 24 h for incubation, the virus titers of the supernatant were determined by measurement of the TCID50. On the basis of the TCID50, the 90% effective concentration (EC90) values of rupintrivir and 2CMC were calculated using XLfit (version 5.3) software."}},
  "data": [
    {"smiles": "CCOC(=O)/C=C/[C@H](C[C@@H]1CCNC1=O)NC(=O)[C@@H](CC(=O)[C@@H](NC(=O)c1cc(C)on1)C(C)C)Cc1ccc(F)cc1", "note": "[rupintrivir, Rupintrivir]", "values": [
      {"measurement": "level of replicon RNA", "setting": "[1]; 5 μM", "value": "below the limit of quantification"},
      {"measurement": "level of replicon RNA", "setting": "[1]; 10 μM", "value": "below the limit of quantification"},
      {"measurement": "colony formation", "setting": "[2]; 2.5 μM for 12 days", "value": "some colonies remained"},
      {"measurement": "colony formation", "setting": "[2]; 5 μM for 12 days", "value": "some colonies remained"},
      {"measurement": "colony formation", "setting": "[2]; 10 μM for 12 days", "value": "completely prevent colony formation"},
      {"measurement": "IC50", "setting": "[3]; HEK293T cells, GI NS1/2-NS3 FRET substrate", "value": "4 ± 0.4", "unit": "µM"},
      {"measurement": "fold increase in IC50", "setting": "[3]; vs GI WT protease", "value": 3.1, "unit": "fold"},
      {"measurement": "EC90", "setting": "[4]; MOI 0.1 TCID50/cell", "value": 9.1, "unit": "µM"},
      {"measurement": "EC90", "setting": "[4]; MOI 1 TCID50/cell", "value": 8.9, "unit": "µM"}
    ]}
  ]
}
